ChEMBL document CHEMBL4373717, “Coumarin-containing hybrids and their anticancer activities” (Eur J Med Chem, 2019)
Converted amounts (≈) assume the structure as drawn.

How the values were obtained:
K562 = assay: Cytotoxicity against human K562 cells assessed as reduction in cell viability after 72 hrs by MTT assay; format: functional, cell-based; conditions: K562, 72 h
HeLa = assay: Cytotoxicity against human HeLa cells assessed as reduction in cell viability after 72 hrs by MTT assay; format: functional, cell-based
Caco-2 [1] = assay: Cytotoxicity against human Caco2 cells assessed as reduction in cell viability after 72 hrs by MTT assay; format: functional, cell-based; conditions: Caco-2, 72 h
HT-29 = assay: Cytotoxicity against human HT-29 cells assessed as reduction in cell viability after 96 hrs by MTT assay; format: functional, cell-based; conditions: HT-29, 96 h
HCT-116 = assay: Cytotoxicity against human HCT116 cells assessed as reduction in cell viability after 96 hrs by MTT assay; format: functional, cell-based; conditions: HCT-116, 96 h
MDA-MB-231 = assay: Cytotoxicity against human MDA-MB-231 cells assessed as reduction in cell viability after 96 hrs by MTT assay; format: functional, cell-based; conditions: MDA-MB-231, 96 h
MCF7 [2] = assay: Cytotoxicity against human MCF7 cells assessed as reduction in cell viability by MTT assay; format: functional, cell-based; conditions: Homo sapiens, MCF7
A549 [3] = assay: Cytotoxicity against human A549 cells assessed as reduction in cell viability by MTT assay; format: functional, cell-based
OVCAR-3 = assay: Anticancer activity against human OVCAR3 cells by CCK8 assay; format: functional, cell-based
A2780 = assay: Anticancer activity against human A2780 cells by CCK8 assay; format: functional, cell-based
HepG2 [4] = assay: Anticancer activity against human HepG2 cells by CCK8 assay; format: functional, cell-based
Hep 3B2 = assay: Anticancer activity against human Hep3B cells by CCK8 assay; format: functional, cell-based
HepG2 [5] = assay: Cytotoxicity against human HepG2 cells assessed as reduction in cell viability by MTT assay; format: functional, cell-based; conditions: Homo sapiens, HepG2
HepG2 [6] = assay: Antiproliferative activity against human HepG2 cells after 72 hrs by ELISA; format: functional, cell-based; conditions: HepG2, 72 h
Caco-2 [7] = assay: Antiproliferative activity against human Caco2 cells after 72 hrs by ELISA; format: functional, cell-based; conditions: Caco-2, 72 h
MCF7 [8] = assay: Antiproliferative activity against human MCF7 cells after 72 hrs by ELISA; format: functional, cell-based; conditions: MCF7, 72 h
BT-20 = assay: Cytotoxicity against human BT20 cells assessed as reduction in cell viability after 24 hrs by MTT assay; format: functional, cell-based; conditions: BT-20, 24 h
SK-MEL-28 = assay: Cytotoxicity against human SK-MEL-28 cells assessed as reduction in cell viability after 24 hrs by MTT assay; format: functional, cell-based; conditions: SK-MEL-28, 24 h
A549 [9] = assay: Cytotoxicity against human A549 cells assessed as reduction in cell viability after 24 hrs by MTT assay; format: functional, cell-based; conditions: A549, 24 h
DU-145 = assay: Cytotoxicity against human DU145 cells assessed as reduction in cell viability after 24 hrs by MTT assay; format: functional, cell-based; conditions: DU-145, 24 h
MCF7 [10] = assay: Cytotoxicity against human MCF7 cells assessed as reduction in cell viability; format: functional, cell-based
[11] = biological target: Vascular endothelial growth factor receptor 2 (Homo sapiens, UniProt P35968); assay: Inhibition of VEGFR2 (unknown origin)
DLD-1 = assay: Cytotoxicity against human DLD1 cells assessed as reduction in cell viability; format: functional, cell-based
MCF7 [12] = assay: Cytotoxicity against human MCF7 cells assessed as reduction in cell viability after 48 hrs by MTT assay; format: functional, cell-based; conditions: MCF7, 48 h
HepG2 [13] = assay: Cytotoxicity against human HepG2 cells assessed as reduction in cell viability after 48 hrs by MTT assay; format: functional, cell-based; conditions: HepG2, 48 h
[14] = Growth inhibition of human KATO III cells; format: functional
OVCAR-8 = assay: Growth inhibition of human OVCAR8 cells; format: functional
T-24 = assay: Growth inhibition of human T24 cells; format: functional
MCF7 [15] = assay: Growth inhibition of human MCF7 cells; format: functional
SN12C = assay: Growth inhibition of human SN12C cells; format: functional
SK-OV-3 = assay: Growth inhibition of human SKOV3 cells; format: functional
PANC-1 = assay: Growth inhibition of human PANC1 cells; format: functional
BXPC-3 = assay: Growth inhibition of human BxPC3 cells; format: functional
WiDr = assay: Growth inhibition of human WiDr cells; format: functional
AGS = assay: Growth inhibition of human AGS cells; format: functional
HepG2 [16] = assay: Growth inhibition of human HepG2 cells; format: functional
SNU1 = assay: Growth inhibition of human SNU1 cells; format: functional

Vascular endothelial growth factor receptor 2, sequence (P35968 whole entry): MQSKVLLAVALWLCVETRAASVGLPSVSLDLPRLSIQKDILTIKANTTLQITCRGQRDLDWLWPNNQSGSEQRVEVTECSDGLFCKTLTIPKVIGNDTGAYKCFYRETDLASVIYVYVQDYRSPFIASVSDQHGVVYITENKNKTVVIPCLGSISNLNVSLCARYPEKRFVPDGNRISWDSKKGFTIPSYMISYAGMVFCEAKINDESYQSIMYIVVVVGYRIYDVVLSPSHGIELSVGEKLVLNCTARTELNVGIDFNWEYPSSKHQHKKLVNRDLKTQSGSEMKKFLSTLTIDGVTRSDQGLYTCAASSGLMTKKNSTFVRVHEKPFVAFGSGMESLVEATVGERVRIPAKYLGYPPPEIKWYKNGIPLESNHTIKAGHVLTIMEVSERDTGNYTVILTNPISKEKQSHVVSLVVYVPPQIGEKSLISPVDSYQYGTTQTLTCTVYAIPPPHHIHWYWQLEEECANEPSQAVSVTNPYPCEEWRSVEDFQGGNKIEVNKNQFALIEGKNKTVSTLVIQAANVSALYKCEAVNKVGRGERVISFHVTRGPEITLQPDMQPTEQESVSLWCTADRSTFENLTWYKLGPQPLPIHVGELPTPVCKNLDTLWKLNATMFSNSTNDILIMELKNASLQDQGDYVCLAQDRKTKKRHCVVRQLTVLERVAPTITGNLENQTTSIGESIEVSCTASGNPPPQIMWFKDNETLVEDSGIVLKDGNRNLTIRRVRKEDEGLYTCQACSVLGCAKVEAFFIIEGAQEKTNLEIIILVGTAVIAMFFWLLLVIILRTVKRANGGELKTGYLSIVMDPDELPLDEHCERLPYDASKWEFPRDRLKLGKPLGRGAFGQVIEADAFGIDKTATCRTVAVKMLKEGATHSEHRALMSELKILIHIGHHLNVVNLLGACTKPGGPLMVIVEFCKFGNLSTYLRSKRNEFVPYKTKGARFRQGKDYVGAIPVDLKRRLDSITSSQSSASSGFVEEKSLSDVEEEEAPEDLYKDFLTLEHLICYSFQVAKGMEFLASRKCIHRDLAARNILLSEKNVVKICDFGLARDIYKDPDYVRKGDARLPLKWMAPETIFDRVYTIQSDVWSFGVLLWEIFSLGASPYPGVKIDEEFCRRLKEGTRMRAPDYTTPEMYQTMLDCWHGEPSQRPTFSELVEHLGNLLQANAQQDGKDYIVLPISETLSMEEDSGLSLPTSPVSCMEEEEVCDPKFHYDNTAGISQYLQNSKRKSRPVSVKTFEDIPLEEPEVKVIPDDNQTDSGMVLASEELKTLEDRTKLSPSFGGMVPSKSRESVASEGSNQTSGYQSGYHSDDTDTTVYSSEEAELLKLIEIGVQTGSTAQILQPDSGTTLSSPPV

SMILES: COc1ccc(-c2cn(Cc3cc(=O)oc4cc(O)c(O)cc34)nn2)cc1
- IC50 (K562): 9.7 to 81.9 µM
- IC50 (HeLa): 9.7 to 81.9 µM
- IC50 (Caco-2 [1]): 9.7 to 81.9 µM

SMILES: C[C@H]1[C@@H](OCc2cn(Cc3cc(=O)oc4cc(O)ccc34)nn2)O[C@@H]2O[C@@]3(C)CC[C@H]4[C@H](C)CC[C@@H]1[C@@]24OO3
- IC50 (HT-29): 8.57 to 100 µM
- IC50 (HCT-116): 8.57 to 100 µM
- IC50 (MDA-MB-231): 8.57 to 100 µM

SMILES: O=C(CNCc1cccnc1)Nc1cc2ccccc2oc1=O
- IC50 (MCF7 [2]): 69.1 to 378 µM
- IC50 (A549 [3]): 69.1 to 378 µM

SMILES: O=c1ccc2ccccc2o1 [COUMARIN]
- IC50 (OVCAR-3): > 100 µM
- IC50 (A2780): > 100 µM
- IC50 (HepG2 [4]): > 100 µM
- IC50 (Hep 3B2): > 100 µM

SMILES: Cc1ccc2oc(=O)cc(CSc3nc(NCc4ccccc4)c(C#N)c(-c4ccccc4)n3)c2c1
- IC50 (MCF7 [2]): 5.5 to 91.1 µM
- IC50 (HepG2 [5]): 5.5 to 91.1 µM

SMILES: O=c1cc(Cn2cc(-c3ccccc3)nn2)c2cc(O)c(O)cc2o1
- IC50 (K562): 9.7 to 81.9 µM
- IC50 (HeLa): 9.7 to 81.9 µM
- IC50 (Caco-2 [1]): 9.7 to 81.9 µM

SMILES: C/C(=N\Nc1ccc([N+](=O)[O-])cc1[N+](=O)[O-])c1ccc(NS(=O)(=O)c2ccc3oc(=O)ccc3c2)cc1
- IC50 (HepG2 [6]): 5.03 to 175 µM
- IC50 (Caco-2 [7]): 5.03 to 175 µM
- IC50 (MCF7 [8]): 5.03 to 175 µM

SMILES: Cc1ccc2oc(=O)cc(CSc3nc(NN)c(C#N)c(-c4ccccc4)n3)c2c1
- IC50 (MCF7 [2]): 6.9 µM
- IC50 (HepG2 [5]): 5.5 µM

SMILES: Cc1ccc2oc(=O)cc(Cn3cc(CO[C@H]4O[C@@H]5O[C@@]6(C)CC[C@H]7[C@H](C)CC[C@@H]([C@H]4C)[C@@]57OO6)nn3)c2c1
- IC50 (HT-29): 8.57 to 100 µM
- IC50 (HCT-116): 8.57 to 100 µM
- IC50 (MDA-MB-231): 8.57 to 100 µM

SMILES: O=C(Cn1nc(Cc2ccc(Br)cc2)[nH]c1=O)NNC(=O)c1cc2cc(Cl)cc(Cl)c2oc1=O
- IC50 (BT-20): 3.1 to 37.9 µg/mL (≈ 5.47 to 66.8 µM)
- IC50 (SK-MEL-28): 3.1 to 37.9 µg/mL (≈ 5.47 to 66.8 µM)
- IC50 (A549 [9]): 3.1 to 37.9 µg/mL (≈ 5.47 to 66.8 µM)
- IC50 (DU-145): 3.1 to 37.9 µg/mL (≈ 5.47 to 66.8 µM)

SMILES: C/C(=N\NC1=NC(=O)CS1)c1ccc(NS(=O)(=O)c2ccc3oc(=O)ccc3c2)cc1
- IC50 (HepG2 [6]): 5.03 µM
- IC50 (Caco-2 [7]): 5.03 to 175 µM
- IC50 (MCF7 [8]): 5.03 to 175 µM

SMILES: CN(C)c1ccc(C2CC(c3cc4ccccc4oc3=O)=NN2c2nc(-c3ccccc3)c(/N=N/c3ccc(Cl)cc3)s2)cc1 (stereo unspecified)
- IC50 (MCF7 [10]): 5.41 to 6.56 µM
- IC50 [11]: 0.034 to 0.582 µM
- IC50 (DLD-1): 114 to 129 µM

SMILES: CCN(CC)c1ccc2cc(C(=O)N3CCN(C(=O)CN4CCN(CCC[C@H]5O[C@@H]6O[C@@]7(C)CC[C@H]8[C@H](C)CC[C@@H]([C@H]5C)[C@@]68OO7)CC4)CC3)c(=O)oc2c1
- IC50 (OVCAR-3): 2.33 to 23.7 µM
- IC50 (A2780): 2.33 to 23.7 µM
- IC50 (HepG2 [4]): 2.33 to 23.7 µM
- IC50 (Hep 3B2): 2.33 to 23.7 µM

SMILES: Cc1cc(-c2cc3cc(Cl)ccc3oc2=O)n(-c2nc(-c3ccc(Cl)cc3)cs2)n1
- IC50 (MCF7 [12]): 4.03 to 31.5 µM
- IC50 (HepG2 [13]): 3.06 to 3.74 µM

SMILES: Cc1cc(=O)oc2cc(NC(=O)CNCc3cccnc3)ccc12
- IC50 (MCF7 [2]): 69.1 to 378 µM
- IC50 (A549 [3]): 69.1 to 378 µM

SMILES: Cc1ccc2[nH]c(-c3cc4ccccc4oc3=O)nc2c1
- GI50 [14]: 0.07 to 3.57 µM
- GI50 (OVCAR-8): 0.07 to 3.57 µM
- GI50 (T-24): 0.07 to 3.57 µM
- GI50 (MCF7 [15]): > 10 µM
- GI50 (SN12C): 0.07 to 3.57 µM
- GI50 (SK-OV-3): 0.07 to 3.57 µM
- GI50 (PANC-1): 0.07 to 3.57 µM
- GI50 (BXPC-3): 0.07 to 3.57 µM
- GI50 (WiDr): 0.07 to 3.57 µM
- GI50 (AGS): 0.07 to 3.57 µM
- GI50 (HepG2 [16]): 0.07 to 3.57 µM
- GI50 (SNU1): 0.07 to 3.57 µM

SMILES: COc1ccccc1-c1cn(Cc2cc(=O)oc3cc(O)c(O)cc23)nn1
- IC50 (K562): 9.7 to 81.9 µM
- IC50 (HeLa): 9.7 to 81.9 µM
- IC50 (Caco-2 [1]): 9.7 to 81.9 µM

SMILES: COc1ccc(-c2csc(-n3nc(C)cc3-c3cc4cc(Cl)ccc4oc3=O)n2)cc1
- IC50 (MCF7 [12]): 4.03 to 31.5 µM
- IC50 (HepG2 [13]): 3.06 to 3.74 µM

SMILES: Cc1cc2nc(-c3cc4ccccc4oc3=O)[nH]c2cc1C
- GI50 [14]: 0.07 to 3.57 µM
- GI50 (OVCAR-8): 0.07 to 3.57 µM
- GI50 (T-24): 0.07 to 3.57 µM
- GI50 (MCF7 [15]): > 10 µM
- GI50 (SN12C): 0.07 to 3.57 µM
- GI50 (SK-OV-3): 0.07 to 3.57 µM
- GI50 (PANC-1): 0.07 to 3.57 µM
- GI50 (BXPC-3): 0.07 to 3.57 µM
- GI50 (WiDr): 0.07 to 3.57 µM
- GI50 (AGS): 0.07 to 3.57 µM
- GI50 (HepG2 [16]): 0.07 to 3.57 µM
- GI50 (SNU1): 0.07 to 3.57 µM

SMILES: CCN(CC)c1ccc2cc(C(=O)NNC(=O)Cn3nc(Cc4cccc(Br)c4)[nH]c3=O)c(=O)oc2c1
- IC50 (BT-20): 3.1 to 37.9 µg/mL (≈ 5.44 to 66.6 µM)
- IC50 (SK-MEL-28): 3.1 to 37.9 µg/mL (≈ 5.44 to 66.6 µM)
- IC50 (A549 [9]): 3.1 to 37.9 µg/mL (≈ 5.44 to 66.6 µM)
- IC50 (DU-145): 3.1 to 37.9 µg/mL (≈ 5.44 to 66.6 µM)
